We go through two molecules from patent publication US9637499B2, “Benzodioxole or benzodioxepine heterocyclic compounds as phosphodiesterase inhibitors” (LEO PHARMA A/S, priority 2010, dated 2017).

Data set [1] addresses Human recombinant PDE4 (Genbank accession no NM_006203) (Homo sapiens (Human), UniProt Q08499). The data set can be described thus: PDE4 Assay (SPA, cAMP cleavage). The class given is biochemical. The following applies: human recombinant PDE4, 1 hour incubation, cAMP 1x10-5 M. The procedure:
At the end of the incubation, the cleavage of the substrate was evaluated by the binding of the AMP product to SPA beads, which generate chemoluminescence when bound to the radioactive tracer. The AMP product inhibited the binding of the radioactive tracer to the beads, and the luminescent signal was competed.
The results were calculated as the molar concentrations resulting in 50% inhibition of the substrate cleavage compared to controls samples, and are expressed as IC50 (M).

Data set [2] can be described thus: In vivo pharmacokinetic analyses in rat, oral dosing. The note with it: serum, PO dosing 5 mg/kg. The protocol:
One rat is dosed orally (5 mg/kg—dissolved in DMSO/H2O/propylenglycol [1:5:4]) and blood samples are taken from the sublingual venous plexus at 30 min, 1 h, 2 h, 4 h and 6 h. Blood samples are taken in BD Vacutainer SST serum separation tubes, serum is isolated by centrifugation, transferred to micronics tubes and subsequently analysed.
Mass spectrometer (API5000 series) parameters are optimised to analyse for the specific compounds and test injections are performed to confirm the validity of the established generic chromatography method. The generic method is based on fast gradient (2.5 min) analysis on C18 column with mobile phases consisting methanol, ammonium acetate, formic acid and water.
Standards are prepared in rat serum to cover the analytical range 0.1 to 300 ng/ml. Standards, blank serum and study samples are applied to 96 deepwell plate and proteins are precipitated by addition of acetonitrile containing internal standard. Samples are analysed on LC-MS/MS usually overnight. Integration and quantification is performed on ration between analyte and internal standard using Analyst software version 1.5. Pharmacokinetic parameters are calculated using a standardised Excel spreadsheet.
In vivo pharmacokinetic profile in rat of compound 101 disclosed in WO 2008/104175 and compound 105 and 106 disclosed in examples 5 and 6, respectively: […]

Sequence of Human recombinant PDE4 (Genbank accession no NM_006203) (Q08499 other isoform, or with tags, fused parts or gaps): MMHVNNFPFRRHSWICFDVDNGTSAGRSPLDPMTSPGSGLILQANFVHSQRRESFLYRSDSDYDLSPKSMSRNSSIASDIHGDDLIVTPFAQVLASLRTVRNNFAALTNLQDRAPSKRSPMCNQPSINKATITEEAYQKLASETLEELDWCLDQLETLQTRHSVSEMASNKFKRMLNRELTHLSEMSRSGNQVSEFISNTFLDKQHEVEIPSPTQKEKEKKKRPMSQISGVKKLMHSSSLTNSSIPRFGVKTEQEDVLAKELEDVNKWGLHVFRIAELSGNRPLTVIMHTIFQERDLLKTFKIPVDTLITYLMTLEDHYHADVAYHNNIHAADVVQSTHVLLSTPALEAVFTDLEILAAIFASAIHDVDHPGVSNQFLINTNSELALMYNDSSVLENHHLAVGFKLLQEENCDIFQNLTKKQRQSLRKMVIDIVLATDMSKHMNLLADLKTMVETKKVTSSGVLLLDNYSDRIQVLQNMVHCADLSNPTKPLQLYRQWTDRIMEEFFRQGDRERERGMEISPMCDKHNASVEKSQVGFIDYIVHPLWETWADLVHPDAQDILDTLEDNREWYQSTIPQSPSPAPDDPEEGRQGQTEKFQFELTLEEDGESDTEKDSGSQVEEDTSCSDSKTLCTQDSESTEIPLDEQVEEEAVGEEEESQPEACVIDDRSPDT

With `O=C(Nc1c(Cl)c[n+](O)cc1Cl)c1ccc(OC(F)F)c2c1OC1(CCS(=O)(=O)CC1)O2` [compound 111, N-(3,5-dichloro-1-oxo-4-pyridyl)-7-(difluoromethoxy)-1′,1′-dioxo-spiro[1,3-benzodioxole-2,4′-thiane]-4-carboxamide], the IC50 in data set [1] came to 106 nM.
As for `O=C(Cc1c(Cl)c[n+]([O-])cc1Cl)c1ccc(OC(F)F)c2c1OC1(CCOCC1)O2` [compound 106, 2-(3,5-Dichloro-1-oxido-pyridine-4-yl)-1-(7-difluoromethoxy-2′,3′,5′,6′-tetrahydro-spiro[1,3-benzodioxole-2,4′-(4H)-pyran]-4-yl)ethanone], the bioavailability in data set [2] was 22%.
